Where a name gives a salt, the structure may show the parent alone. Each block holds one compound with its values, some of them ahead of it.
Columns and labels:
Human GLP-1R [1] = target: T1, Human GLP-1R (Homo sapiens, UniProt P43220); assay: cell-based or functional assay
[2] = target: T2, human calcitonin receptor (human) (UniProt P30988); assay: cell-based or functional assay
T2 sequence (looked up): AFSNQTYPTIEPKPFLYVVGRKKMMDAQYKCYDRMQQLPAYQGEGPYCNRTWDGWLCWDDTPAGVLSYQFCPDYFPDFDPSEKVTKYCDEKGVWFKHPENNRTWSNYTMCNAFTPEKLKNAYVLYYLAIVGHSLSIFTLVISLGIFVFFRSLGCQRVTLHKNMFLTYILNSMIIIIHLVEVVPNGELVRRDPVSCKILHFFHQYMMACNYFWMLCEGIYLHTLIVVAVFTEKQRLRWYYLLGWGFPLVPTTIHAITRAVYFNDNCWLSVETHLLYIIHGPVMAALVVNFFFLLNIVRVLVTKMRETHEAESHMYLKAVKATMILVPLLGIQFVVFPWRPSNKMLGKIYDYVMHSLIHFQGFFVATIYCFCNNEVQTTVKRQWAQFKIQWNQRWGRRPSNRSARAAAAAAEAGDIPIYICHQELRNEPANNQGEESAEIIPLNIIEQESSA

[3] = target: T3, human GIP receptor (human) (UniProt P48546); assay: cell-based or functional assay
T3 sequence (looked up): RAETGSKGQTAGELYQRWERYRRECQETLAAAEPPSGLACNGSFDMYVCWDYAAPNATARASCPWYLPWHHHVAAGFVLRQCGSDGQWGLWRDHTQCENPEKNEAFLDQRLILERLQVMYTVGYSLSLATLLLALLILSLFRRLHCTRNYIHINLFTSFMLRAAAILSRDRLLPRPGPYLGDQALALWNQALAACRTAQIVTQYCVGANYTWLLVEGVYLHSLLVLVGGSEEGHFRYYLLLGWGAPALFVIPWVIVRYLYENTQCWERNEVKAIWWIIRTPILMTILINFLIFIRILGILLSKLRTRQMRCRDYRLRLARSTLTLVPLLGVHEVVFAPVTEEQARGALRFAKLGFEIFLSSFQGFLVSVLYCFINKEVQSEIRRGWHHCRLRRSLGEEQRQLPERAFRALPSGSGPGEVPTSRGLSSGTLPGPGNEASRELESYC

Human CalcitoninR = target: T4, Human CalcitoninR (Homo sapiens, UniProt P30988); assay: GPCR cell-based cAMP assay, human calcitonin receptor; conditions: stably transfected CHO-Kl cells, 0.1% casein
T4 construct: expressed in transfected cells; host or cells: CHO-K1, stably transfected
T4 sequence (P30988 25-474): T2 sequence (looked up)
Protocol: (§1) Experimental protocol: Cells were seeded in a total volume of 20 μL into white walled, 384-well microplates and incubated at 37° C. overnight prior to testing. Prior to testing cell plating media was exchanged with 10 μL of Assay buffer (HBSS+10 mM HEPES). All compounds were run in assay buffer containing 0.1% casein. Briefly, intermediate dilution of sample stocks was performed to generate 4× sample in assay buffer. 5 μL of 4× sample was added to cells and incubated at 37° C. for 30 minutes. Final assay vehicle concentration was 1%. […] Microplates were read following signal generation with PerkinElmer Envision instrument for chemiluminescent signal detection.
(§2) The results are expressed as a percent efficacy relative to the maximum response of the control ligand.

Human Calc/RAMP3R (AMY3) = target: T5, Human Calc/RAMP3R (AMY3) (Homo sapiens, UniProt O60896+P30988); assay: GPCR cell-based cAMP assay, human AMY3 receptor; conditions: stably transfected CHO-Kl cells, 0.1% casein
T5 construct: expressed in transfected cells; host or cells: CHO-K1, stably transfected
T5 sequence (P30988 25-474): T2 sequence (looked up)
T5 sequence (O60896 24-148 partner): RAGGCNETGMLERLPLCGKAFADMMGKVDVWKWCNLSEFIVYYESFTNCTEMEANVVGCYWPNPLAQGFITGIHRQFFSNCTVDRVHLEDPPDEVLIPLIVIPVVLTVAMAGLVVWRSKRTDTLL
Protocol: as §1, §2

Human GIPR = target: T6, Human GIPR (Homo sapiens, UniProt P48546); assay: GPCR cell-based cAMP assay, human GIP receptor; conditions: stably transfected CHO-Kl cells, 0.1% casein
T6 construct: expressed in transfected cells; host or cells: CHO-K1, stably transfected
T6 sequence (P48546 22-466): T3 sequence (looked up)
Protocol: as §1, §2

lean mice = assay: Acute food intake in lean mice after single s.c. administration; type: in vivo, C57BL/6j male mice; conditions: mean ± SEM
Protocol: (§3) Differences were considered statistically significant at p<0.05. Data analysis was carried out with GraphPad software (GraphPad Prism).

4 h fasted mice = assay: Blood glucose after single administration of peptides; type: in vivo; conditions: 4 h fasted mice, single s.c. 10 nmol/Kg, mean ± SEM
Protocol: as §3

lean rats = assay: Acute food intake and body weight reduction in lean rats; type: in vivo, Sprague Dawley male rats; conditions: single s.c. 10 nmol/Kg, mean ± SEM
Protocol: Food intake was measured at different time-intervals post-injection up to 72 h using a precision balance. Cumulative food intake was calculated for the indicated time-periods. Body weight was measured at the indicated time-periods. Mean of cumulative food intake in each dose group was compared to vehicle and reported as a percentage of mean reduction relative to vehicle.
All data shown are the mean±standard error (SEM).

DIO mice = assay: Food intake and body weight after repeated dosing in DIO mice; type: in vivo, C57BL/6j male mice; conditions: daily injection 10 nmol/kg for 20 days
Protocol: as §3

Human GLP-1R [4] = target: T1, Human GLP-1R; assay: GPCR cell-based cAMP assay, human GLP-1 receptor; design: expressed in transfected cells; host or cells: CHO-K1, stably transfected; conditions: stably transfected CHO-Kl cells, 0.1% casein
Protocol: as §1, §2
Target sequence in this assay (P43220 24-463): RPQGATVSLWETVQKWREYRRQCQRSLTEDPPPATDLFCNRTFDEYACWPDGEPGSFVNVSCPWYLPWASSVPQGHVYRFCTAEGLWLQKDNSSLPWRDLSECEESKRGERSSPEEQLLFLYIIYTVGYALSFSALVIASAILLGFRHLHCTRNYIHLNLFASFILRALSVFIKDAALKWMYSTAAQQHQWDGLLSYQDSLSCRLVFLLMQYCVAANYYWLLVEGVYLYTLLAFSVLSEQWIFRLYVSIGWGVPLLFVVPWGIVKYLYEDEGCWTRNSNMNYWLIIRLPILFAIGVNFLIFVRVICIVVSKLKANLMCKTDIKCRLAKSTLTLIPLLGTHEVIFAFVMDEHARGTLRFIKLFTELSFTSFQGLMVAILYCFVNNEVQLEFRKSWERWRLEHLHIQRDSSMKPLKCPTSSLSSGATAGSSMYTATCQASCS

Compound: Exendin-4 (from UniProt P26349 48-86) (peptide)
EC50 (nM), cell-based cAMP assay, CHO-K1 cells (Human GLP-1R [1]): 0.002 nM

EC50 (nM), cell-based cAMP assay, CHO-K1 cells [2]: 0.026 nM
Compound: Calcitonin (peptide)

EC50 (nM), cell-based cAMP assay, CHO-K1 cells [3]: 0.075 nM
Compound: GIP (peptide)

EC50 (Human CalcitoninR): 0.185 nM
EC50 (Human Calc/RAMP3R (AMY3)): 0.353 nM
EC50 (Human GIPR): 0.121 nM
EC50 (Human GLP-1R [4]): 0.438 nM
Compound: CC[C@H](C)[C@H](NC(=O)[C@H](CC(C)C)NC(=O)[C@H](Cc1c[nH]c2ccccc12)NC(=O)[C@H](CCC(N)=O)NC(=O)[C@@H](NC(=O)[C@H](Cc1ccccc1)NC(=O)[C@H](C)NC(=O)[C@H](CCC(N)=O)NC(=O)[C@H](CCC(N)=O)NC(=O)[C@H](C)NC(=O)[C@@H](NC(=O)[C@H](CCCCN)NC(=O)[C@H](CC(=O)O)NC(=O)[C@H](CC(C)C)NC(=O)C(C)(C)NC(=O)[C@@H](NC(=O)[C@H](CO)NC(=O)[C@H](Cc1ccc(O)cc1)NC(=O)[C@H](CC(=O)O)NC(=O)[C@H](CO)NC(=O)[C@@H](NC(=O)[C@H](Cc1ccccc1)NC(=O)[C@@H](NC(=O)CNC(=O)[C@H](CCC(=O)O)NC(=O)C(C)(C)NC(=O)[C@@H](N)Cc1ccc(O)cc1)[C@@H](C)O)[C@@H](C)O)[C@@H](C)CC)[C@@H](C)CC)C(C)C)C(=O)N[C@@H](C)C(=O)NCC(=O)NCC(=O)N1CCC[C@H]1C(=O)N[C@@H](CO)C(=O)N[C@@H](CCCCN)C(=O)N[C@H]1CSSC[C@@H](C(=O)N[C@H](C(=O)N[C@@H](CC(C)C)C(=O)NCC(=O)N[C@@H](CCCNC(=N)N)C(=O)N[C@@H](CC(C)C)C(=O)N[C@@H](CO)C(=O)N[C@@H](CCC(N)=O)C(=O)N[C@@H](CCC(=O)O)C(=O)N[C@@H](CC(C)C)C(=O)N[C@@H](Cc2c[nH]cn2)C(=O)N[C@@H](CCCNC(=N)N)C(=O)N[C@@H](CC(C)C)C(=O)N[C@@H](CCC(N)=O)C(=O)N[C@H](C(=O)N[C@@H](Cc2ccc(O)cc2)C(=O)N2CCC[C@H]2C(=O)N[C@@H](CCCNC(=N)N)C(=O)N[C@H](C(=O)N[C@@H](CC(N)=O)C(=O)N[C@H](C(=O)NCC(=O)N[C@@H](CCCCNC(=O)COCCOCCNC(=O)COCCOCCNC(=O)CC[C@H](NC(=O)CCCCCCCCCCCCCCCCC(=O)O)C(=O)O)C(=O)N[C@@H](CC(N)=O)C(=O)N[C@H](C(=O)N[C@@H](Cc2ccc(O)cc2)C(N)=O)[C@@H](C)O)[C@@H](C)O)[C@@H](C)O)[C@@H](C)O)C(C)C)NC(=O)[C@H]([C@@H](C)O)NC(=O)[C@H](C)NC(=O)[C@H]([C@@H](C)O)NC(=O)[C@H](CC(N)=O)NC1=O [SEQ ID NO. 47, Y-Aib-E-G-T-F-T-S-D-Y-S-I-Aib-LDKIAQQAFVQWLIAGGPSKCNTATCVLGRLSQELHRLQTYPRTNTGK*-N-T-Y-NH2-acetate salt (wherein K* = Lys(AEEAc-AEEAc-γ-Glu-17-carboxyheptadecanoyl))]
Cumulative food intake reduction relative to vehicle (lean mice; Table 12, 10 nmol/Kg, 8 H): 64.7 ± 2.16 %
Cumulative food intake reduction relative to vehicle (lean mice; Table 12, 10 nmol/Kg, 24 H): 65.4 ± 1.53 %
Cumulative food intake reduction relative to vehicle (lean mice; Table 12, 10 nmol/Kg, 48 H): 42.3 ± 1.61 %
Cumulative food intake reduction relative to vehicle (lean mice; Table 12, 10 nmol/Kg, 72 H): 26.0 ± 2.27 %
Cumulative food intake reduction relative to vehicle (lean mice; Table 13, 10 nmol/Kg, 8 H): 62.5 ± 2.81 %
Cumulative food intake reduction relative to vehicle (lean mice; Table 13, 10 nmol/Kg, 24 H): 49.0 ± 5.24 %
Cumulative food intake reduction relative to vehicle (lean mice; Table 13, 10 nmol/Kg, 48 H): 28.0 ± 3.62 %
Cumulative food intake reduction relative to vehicle (lean mice; Table 13, 10 nmol/Kg, 72 H): 14.8 ± 2.78 %
Cumulative food intake reduction relative to vehicle (lean mice; Table 13, 30 nmol/Kg, 8 H): 83.6 ± 2.44 %
Cumulative food intake reduction relative to vehicle (lean mice; Table 13, 30 nmol/Kg, 24 H): 64.5 ± 4.61 %
Cumulative food intake reduction relative to vehicle (lean mice; Table 13, 30 nmol/Kg, 48 H): 36.7 ± 2.82 %
Cumulative food intake reduction relative to vehicle (lean mice; Table 13, 30 nmol/Kg, 72 H): 25.2 ± 2.60 %
Blood glucose, 120 min (4 h fasted mice; 120 min after injection): 102.2 ± 4.08 mg/dL
Blood glucose, 240 min (4 h fasted mice; 240 min after injection): 77.0 ± 3.75 mg/dL
Blood glucose, Time 0 (4 h fasted mice; Time 0 (baseline)): 174.7 ± 3.62 mg/dL
Cumulative food intake reduction vs vehicle (lean rats; 4 H): 14.0 ± 7.72%
Cumulative food intake reduction vs vehicle (lean rats; 12 H): 40.6 ± 4.52 %
Cumulative food intake reduction vs vehicle (lean rats; 24 H): 40.8 ± 4.23 %
Cumulative food intake reduction vs vehicle (lean rats; 48 H): 30.1 ± 3.03 %
Cumulative food intake reduction vs vehicle (lean rats; 72 H): 14.3 ± 2.53 %
Food intake reduction by intervals vs vehicle (lean rats; interval 0-4 H): 14.0 ± 7.72%
Food intake reduction by intervals vs vehicle (lean rats; interval 4-12 H): 48.7 ± 5.41 %
Food intake reduction by intervals vs vehicle (lean rats; interval 12-24 H): 42.9 ± 9.15 %
Food intake reduction by intervals vs vehicle (lean rats; interval 24-48 H): 19.3 ± 2.41 %
Food intake reduction by intervals vs vehicle (lean rats; interval 48-72 H): −23.3 ± 4.52 %
Effect on fasting insulin (DIO mice; 4 h fasted, FIG. 5): reduced
Effect on fasting serum glucose (DIO mice; 4 h fasted, FIG. 5): reduced
Effect on food intake in DIO mice (DIO mice; FIG. 2): reduce
Effect on body weight in DIO mice (DIO mice; FIG. 3): reduce
Effect on fat mass, assessed by MRI (DIO mice; FIG. 4): reduction of fat mass

— patent US20240059753A1, “COMPOSITIONS INCLUDING MULTI-AGONIST PEPTIDES AND METHODS OF MANUFACTURE AND USE” (Pep2Tango Therapeutics Inc., priority 2022, published 2024)
